As a reminder, the IC50 is the concentration that gives 50% inhibition. For orientation: AC50 means the midpoint of the concentration-response curve, whichever way the signal moves. A word on the EC50: it is the midpoint of the concentration-response curve.

For 6 molecules, IC50, AC50 and EC50 results are on record in ChEMBL document CHEMBL1201862, “PubChem BioAssay data set” (2004).

Assay [1] can be described thus: ADAM10 inhibitors, peptide cleavage, dose response, biochemical, QFRET (AID 743254).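 Also: ADAM10 enzyme with the DM2 quenched FRET peptide as substrate; EDANS fluorescence gain as the protease cuts the substrate; inhibitor potency against ADAM10 proteolytic activity.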
Assay [2] has as its target Disintegrin and metalloproteinase domain-containing protein 17 (Homo sapiens, UniProt P78536). Briefly: ADAM17 protease inhibitors, dose response, counter-screen for ADAM10 exosite inhibitor project, biochemical, quenched FRET substrate (AID 743253). In general terms: Counterscreens check selectivity or assay interference.
A short description of assay [3]: A2780 ovarian cancer cell cytotoxicity, dose response, cytotoxicity control, plate reader, dry powder samples (AID 743046). The assay is classed as functional, cell-based.
A short description of assay [4]: non-specific cell cytotoxicity, dose response, cytotoxicity control for PAX8 inhibitor project, plate reader, dry powder samples (AID 743021). The class given is functional, cell-based.
A short description of assay [5]: NIH:OVCAR-3 ovarian cancer cell cytotoxicity, dose response, PAX8 inhibitor project, plate reader, dry powder samples (AID 743044). The class given is functional, cell-based.
The nature of assay [6]: cytotoxicity in OVCAR8 ovarian cancer cells, dose response, PAX8 project, cell-based, plate reader, dry powder samples (AID 743197). The class given is functional. As to conditions: OVCAR-8.
For another assay, the target named is Paired box protein Pax-8 (Homo sapiens, UniProt Q06710). Briefly: inhibitors of PAX8-driven TPO luciferase reporter, dose response, RMG-I cells, cherry-pick (AID 687027).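 Also: luciferase reporter driven by Pax8 target thyroperoxidase promoter measured by SteadyGlo luminescence.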 The class given is functional, cell-based.
Assay [7] in a line: A549 cell cytotoxicity, dose response, cytotoxicity control, cherry-picks, 26 µM top dose (AID 1053119). The class given is functional, cell-based.
Assay [8] is described as follows: HepG2 cell cytotoxicity, dose response, cytotoxicity control, cherry-picks, set 5 (AID 1053118). The class given is functional, cell-based.
The nature of assay [9]: inhibitors of PGC1a acetylation in cells, dose response, cell-based, cherry-picked samples (AID 720514).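 Also: potency may reflect raised or lowered acetylation signal.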 The class given is functional.
Assay [10] can be described thus: HEK293 cell cytotoxicity, dose response, cytotoxicity control, cherry-picks, set 5 (AID 1053117). The assay is classed as functional, cell-based.
Assay [11] can be described thus: A375 melanoma cell viability loss, dose response, counter-screen for MITF inhibitor project, CellTiter-Glo luminescence, dry powder, set 4 (AID 624364).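 Also: A375 melanoma cells are MITF independent so this is a counter screen.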 The assay is classed as functional, cell-based. Conditions: A-375.
Assay [12] can be described thus: A375 melanoma cell cytotoxicity, dose response, counter-screen for MITF inhibitor project, CellTiter-Glo luminescence, dry powder, set 2 (AID 624489).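 Also: actives are compounds lowering A375 viability meaning general cytotoxicity.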 The class given is functional, cell-based. Conditions: A-375.
Assay [13] can be described thus: growth suppression of PTEN-null colon cells, dose response, cell-based, HCT116 PTEN knockout (AID 1047).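 Also: HCT116 colon tumor cells with PTEN knocked out; cells exposed to compound for 60 hours before readout; potency for loss of cell viability measured by luminescence.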 The assay is classed as functional.
Assay [14] in a line: growth suppression of beta-catenin-knockout colon cells, dose response, cell-based, HCT116, human colon tumor (AID 1045).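 Also: HCT116 colon tumor cells with beta catenin knocked out; cells exposed to compound for 60 hours.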 The class given is functional.

Each structure is given as a SMILES string. The source made the active and inactive calls.

Disintegrin and metalloproteinase domain-containing protein 17, sequence (P78536 whole entry, the tested form may be a part): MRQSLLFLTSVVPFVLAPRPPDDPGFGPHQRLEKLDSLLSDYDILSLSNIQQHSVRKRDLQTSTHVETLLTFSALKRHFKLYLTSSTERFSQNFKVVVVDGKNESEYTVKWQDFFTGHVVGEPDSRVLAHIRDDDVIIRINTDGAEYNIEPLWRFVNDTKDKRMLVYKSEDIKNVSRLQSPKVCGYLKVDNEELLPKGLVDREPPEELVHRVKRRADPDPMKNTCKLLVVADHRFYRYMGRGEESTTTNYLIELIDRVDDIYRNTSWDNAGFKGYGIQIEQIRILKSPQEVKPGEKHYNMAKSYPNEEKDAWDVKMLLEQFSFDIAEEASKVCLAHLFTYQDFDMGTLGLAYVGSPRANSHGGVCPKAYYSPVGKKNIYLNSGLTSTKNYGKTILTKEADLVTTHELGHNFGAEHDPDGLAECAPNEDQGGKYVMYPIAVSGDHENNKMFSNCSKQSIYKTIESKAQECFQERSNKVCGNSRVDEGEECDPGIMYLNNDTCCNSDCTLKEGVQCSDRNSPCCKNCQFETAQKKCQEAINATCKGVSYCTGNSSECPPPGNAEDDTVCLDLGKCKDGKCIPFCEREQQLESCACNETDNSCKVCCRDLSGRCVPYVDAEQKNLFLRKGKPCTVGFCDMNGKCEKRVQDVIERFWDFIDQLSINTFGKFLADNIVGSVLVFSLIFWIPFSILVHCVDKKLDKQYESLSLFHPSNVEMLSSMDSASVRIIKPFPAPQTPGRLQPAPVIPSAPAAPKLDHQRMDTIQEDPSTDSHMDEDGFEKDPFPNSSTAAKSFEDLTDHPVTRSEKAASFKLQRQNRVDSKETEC
Paired box protein Pax-8, sequence (Q06710 whole entry): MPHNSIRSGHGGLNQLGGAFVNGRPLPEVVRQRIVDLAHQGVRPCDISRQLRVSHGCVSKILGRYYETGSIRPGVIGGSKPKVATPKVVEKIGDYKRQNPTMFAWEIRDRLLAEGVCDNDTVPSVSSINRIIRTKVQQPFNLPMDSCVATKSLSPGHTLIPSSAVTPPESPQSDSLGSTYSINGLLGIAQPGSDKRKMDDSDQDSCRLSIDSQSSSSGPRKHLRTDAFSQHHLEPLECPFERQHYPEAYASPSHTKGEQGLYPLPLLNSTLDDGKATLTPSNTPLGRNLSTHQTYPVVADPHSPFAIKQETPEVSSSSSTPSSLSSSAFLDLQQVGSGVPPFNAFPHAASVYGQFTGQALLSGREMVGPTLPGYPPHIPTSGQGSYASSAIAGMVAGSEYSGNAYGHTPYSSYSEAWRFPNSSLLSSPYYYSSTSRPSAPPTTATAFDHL

`CC1(Cc2ccc(C(F)(F)F)o2)C(=O)Nc2cc(-c3ccc(F)cc3F)ccc21` (stereo not given): the IC50 in assay [1] was 15.6 µM (inactive); in assay [2], > 69.5 µM (inactive).
With `C[C@H]1CCCCO[C@H](CN(C)S(=O)(=O)c2ccccc2)[C@@H](C)CN([C@@H](C)CO)C(=O)c2cc(NS(=O)(=O)c3ccc(Cl)cc3)ccc2O1`, the AC50 is 19.1 µM (active) in assay [3]; 43.2 µM (active) in [4]; 58.4 µM (active) in [5]; > 70 µM (inactive) in [6]; 7.4 µM (active) on Paired box protein Pax-8.
On to `CO[C@H]1CN(C)C(=O)c2ccc(NC(=O)c3ccc(-c4ccccc4)cc3)cc2OC[C@H](C)NC[C@@H]1C`, for which the AC50 in [7] was > 52 µM (inactive); in [8], > 52 µM (inactive); in assay [9] it was 31.9 µM (active); in [10], > 52 µM (inactive).
Turning to `CO[C@H]1CN(C)C(=O)c2cc(NC(=O)Nc3cc(Cl)cc(Cl)c3)ccc2OC[C@H](C)NC[C@H]1C`, the AC50 was > 52 µM (inactive) in assay [7], 16.6 µM (active) in [8] and 34.3 µM (active) in assay [10].
As for `CCN1CCN(C2=C(NS(=O)(=O)c3cccs3)C(=O)c3ccccc3C2=O)CC1`, the AC50 is > 70 µM (inactive) in assay [11] and 56.1 µM (active) in assay [12].
`O=S(=O)(N/N=C/c1cn(Cc2ccccc2)c2ccccc12)c1ccccc1`: the IC50 in [1] is 25.1 µM (inactive); in [2] it was > 69.5 µM (inactive). The EC50 in assay [13] is 3.27 µM (active); in assay [14], 35.6 µM (active).
